# From patent US20250057859A1, “CANNABICHROMENEQUINONE AND ANALOGUES THEREOF, AND METHOD OF USING COMPOSITIONS THEREOF AS ANTI-INFLAMMATORY AGENTS” (Juva Life, Inc., priority 2021, published 2025)
# Legend:
# IL-6 = IL-6 secretion assay in human PBMCs (LPS-stimulated, ELISA); type: cell-based; details: PBMC, LPS 100 ng/mL 6 hr, read-out: IL6 inhibitory activity IC50
# Protocol: Fetal bovine serum (FBS) was obtained from ThermoFisher (Cat #16000044). • Other reagents: 96well TC plates were obtained from ThermoFisher (Cat #07-2000-90). LPS was obtained from Sigma (Cat #L3024).
# IL-6 was assessed using a standard ELISA protocol. Cryopreserved PBMCs were thawed in a water bath and transferred to 50 mL polypropylene tubes. The cells were washed two times with 25 mL of RPMI medium supplemented with 5% of heat-inactivated FBS and re-suspended at a density of 4.5^10^6 cells/mL. The cells were plated into 96 well TC late (100 uL/well). Serially diluted compound was added to the cells in duplicate wells for each concentration. Control wells received DMSO only (0.3% final). The cells were pre-incubated with compound for 1 hr. After pre-incubation, the cells were stimulated by LPS (100 ng/mL) for 6 hr. Control samples with and without LPS in the absence of compound were assembled in each test plate. IL-6 was detected in media supernatants by using a sandwich anti-IL-6 ELISA kit (BD Biosciences) according to protocol provided by the manufacturer. ELISA readout (optical density at 450 nm) is commensurable with the amount of IL-6 produced by the cells. Assay window was determined in each experiment by comparing average OD450 values in stimulated and un-stimulated samples in the absence of compound. ELISA calibration was performed in each detection plate using serially diluted recombinant human IL-6, to ensure that OD450 values for all test samples were within linear range of detection.%-Inhibition by compound was calculated using following equation:
# [formula] • where OD450100% is optical density in control samples stimulated with LPS without compound, OD4500% is optical density in unstimulated control samples, and OD450compound is optical density in a sample stimulated with LPS in the presence of compound.
# The calculated %-Inh values were plotted against compound concentration. To determine IC50 values, dose-response curves were fitted by a 4-parameter sigmoid inhibition model using XLFit® software (IDBS).
# IL-10 = IL-10 secretion assay in human PBMCs (PHA-M-stimulated, ELISA); type: cell-based; details: PBMC, PHA-M 10 ug/mL 40 hr, read-out: IL10 inhibitory activity IC50
# Protocol: Fetal bovine serum (FBS) was obtained from ThermoFisher (Cat #16000044). • Other reagents: 96well TC plates were obtained from ThermoFisher (Cat #07-2000-90).
# Cryopreserved PBMCs were thawed in a water bath and transferred to 50 mL polypropylene tubes. The cells were washed two times with 25 mL of RPMI medium supplemented with 5% of regular FBS and re-suspended at a density of 1.5×10^6 cells/mL. The cells were plated into 96 well TC plate (100 uL/well). Serially diluted compound was added to the cells in duplicate wells for each concentration. Control wells received DMSO only (0.3% final). The cells were pre-incubated with compound for 2 hr. After pre-incubation, the cells were stimulated by PHA-M (10 ug/mL) for 40 hr. Control samples with and without PHA-M in the absence of compound were assembled in each test plate. IL-10 was detected in media supernatants by using a sandwich anti-IL10 ELISA kit (BD Biosciences) according to protocol provided by the manufacturer. ELISA readout (optical density at 450 nm) is commensurable with the amount of IL-10 produced by the cells. Assay window was determined in each experiment by comparing average OD450 values in stimulated and un-stimulated samples in the absence of compound. ELISA calibration was performed in each detection plate using serially diluted recombinant human IL-10 standard to ensure that OD450 values for all test samples were within linear range of detection.%-Inhibition by compound was calculated using following equation:
# [formula] • where OD450100% is optical density in control samples stimulated with PHA-M without compound, OD4500% is optical density in unstimulated control samples, and OD450compound is optical density in a sample stimulated with PHA-M in the presence of compound. The calculated %-Inh values were plotted against compound concentration. To determine IC50 values, dose-response curves were fitted by a 4-parameter sigmoid inhibition model using XLFit® software (IDBS).
SMILES,IC50 (IL-6),IC50 (IL-10)
CCCCCC1=CC(=O)C2=C(OC(C)(CCC=C(C)C)C=C2)C1=O (stereo not shown) [Formula II],1.2 µM,780 nM
CCCCCc1cc(OC(C)=O)c2c(c1OC(C)=O)OC(C)(CCC=C(C)C)C=C2 (stereo not shown) [Formula XXIII],8.7 µM,920 nM
CCCCCc1cc(O)c2c(c1O)OC(C)(CCC=C(C)C)C=C2 (stereo not shown) [Formula XXII],> 10 µM,920 nM
CCCCCc1cc(OC)c2c(c1OC)OC(C)(CCC=C(C)C)C=C2 (stereo not shown) [Formula XXIV],14.4 µM,> 10000 nM
CCCCCC1=C(NCC)C(=O)C2=C(OC(C)(CCC=C(C)C)C=C2)C1=O (stereo not shown) [Formula XXVIII],> 10 µM,> 10000 nM
CC(C)=CCCC1(C)C=CC2=C(O1)C(=O)c1ccccc1C2=O (stereo not shown) [Formula XXVII],> 10 µM,> 10000 nM
CCCCCC1=CC(=O)C2=C(O[C@](C)(CCC=C(C)C)C=C2)C1=O [Formula XXVI],1.07 µM,380 nM
CCCCCC1=C(NCCC)C(=O)C2=C(OC(C)(CCC=C(C)C)C=C2)C1=O (stereo not shown) [Formula XXV],9.3 µM,> 10000 nM
